Five compounds from patent publication US5668143A, “Heterocyclic benzenesulfonylimine derivatives as inhibitors of IL-1 action” (Merrell Pharmaceuticals Inc., priority 1996, dated 1997) can be followed below.

Assay [1] has as its system interleukin-1 beta (IL-1β) release (production) by human peripheral blood monocyte-derived macrophages. The assay can be described thus: Endotoxin-Induced Interleukin-1 Beta Release by Human Macrophages. The note with it: Macrophage, endotoxin 20 ng/mL (Salmonella typhimurium, Re-mutant), compound 1 h before stimulation, supernatant at 24 h, ELISA. The class given is cell-based. Here is the method:
Endotoxin-Induced Interleukin-1 Beta Release by Human Macrophages The objective of this test is to determine the inhibitory concentrations for the test compounds against endotoxin-induced interleukin-1 beta (IL-1β) release (production) by human peripheral blood monocyte-derived macrophages. The source of the human peripheral blood monocyte-derived macrophages is as follows: Venous blood is collected from healthy volunteers in 10 mM sodium citrate (2 mL sterile sodium citrate for 40 mL blood). Mononuclear cells are isolated with the Leucoprep tubes (Becton Dickenson, product number 2752 or 2751) spun at 1500 g for 15 minutes. Aliquots of 3×10^6 mononuclear cells are added to 24-well tissue culture plates (Corning) in RPMI-1640. After one hour incubation at 37° C., non-adherent cells are gently rinsed off. The adherent cells (macrophages) are given back fresh medium RPMI-1640, 1 mL/well. Macrophage monolayer cultures are pretreated with compounds one hour prior to endotoxin (20 ng/mL, Salmonella typhimurium, Re-mutant, from Ribi Immuchem.) stimulation. Compounds dissolved in 95% ethanol or DMSO would require additional monolayer cultures treated with 10 or 2.5 μl 95% ethanol or DMSO, respectively. Culture supernatants are collected 24 hours later and are tested for IL-1β using a commercial ELISA kit (Cistron). The IL-1β concentration in the culture supernatant is calculated by a standard curve generated from a series of known concentrations. Potency of compound is reported in IC50 (μM).
(ELISA stands for enzyme-linked immunosorbent assay.)

Assay [2] is described as follows: Interleukin-1-Beta-Induced Tumor Necrosis Factor Alpha Release by Human Macrophages. Type of assay: cell-based. Conditions: Macrophage; TNF-α release; recombinant human IL-1β 20 ng/mL; compound 1 h before stimulation; supernatant at 24 h; ELISA. The text has this: Interleukin-1-Beta-Induced Tumor Necrosis Factor Alpha Release by Human Macrophages
To determine the inhibitory concentrations for the test compounds against interleukin-1 beta (IL-1β)-induced tumor necrosis factor alpha (TNFα) release by human peripheral blood monocyte-derived macrophages. It should be understood that this is a test of the ability of the test compounds to modulate, i.e. inhibit, the activity of IL-1β by measuring the inhibition of IL-1β induced release of TNFα.
Source Human peripheral blood monocyte-derived macrophages:
Venous blood is collected form healthy volunteers in 10 mM sodium citrate (2 mL sterile sodium citrate for 40 mL blood). Mononuclear cells are isolated with the Leucoprep tubes (Becton Dickinson, product number 2752 or 2751) spun at 1500 g for fifteen minutes. Aliquots of 3×10^6 mononuclear cells are added to 24-well tissue culture plates (Corning) in RPMI-1640. After 1 hour incubation at 37° C., non-adherent cells are gently rinsed off. The adherent cells (macrophages) are given back fresh medium RPMI-1640, 1 mL/well.
Macrophage monolayer cultures are pretreated with compounds one hour prior to IL-1β (20 ng/mL, recombinant human IL-1β) stimulation. Compounds dissolved in 95% ethanol or DMSO would require additional monolayer cultures treated with 10 or 2.5 μl 95% ethanol or DMSO, respectively. Culture supernatants are collected 24 hours later and are tested for TNF-α using a commercial ELISA kit (Cistron).
The TNF-α concentration in the culture supernatant is calculated by a standard curve generated from a series of known concentrations. Potency of compound is reported in IC50 (μM).

Each structure is given as a SMILES string.

The term IC50 denotes the concentration at which inhibition is half-maximal. Consider `COC(=O)c1cc(=NS(=O)(=O)c2ccccc2)c2ccccc2o1` [4-[Benzenesulfonylimino]-4H-chromene-2-carboxylic acid, methyl ester], for which the figures for the IC50 in assay [1] and in assay [2] were 3000 nM and 2000 nM, respectively.
The corresponding values for `CNC(=O)c1cc(=NS(=O)(=O)c2ccccc2)c2c(Cl)cc(Cl)cc2[nH]1` [5,7-Dichloro-4-[benzenesulfonylimino]-1,4-dihydroquinoline-2-carboxylic acid-N-methylamide] are 3000 nM and 4000 nM.
The corresponding values for `CCOC(=O)c1cc(=NS(=O)(=O)c2ccccc2)c2c(Cl)cc(Cl)cc2[nH]1` [5,7-Dichloro-4-[benzenesulfonylimino]-1,4-dihydroquinoline-2-carboxylic acid, ethyl ester] are 2000 nM and 3000 nM.
On the same counts, the results for `CCCCOC(=O)c1cc(=NS(=O)(=O)c2ccccc2)c2c(Cl)cc(Cl)cc2[nH]1` [5,7-Dichloro-4-[benzenesulfonylimino]-1,4-dihydroquinoline-2-carboxylic acid, butyl ester] are 3000 nM and 5000 nM.
Regarding `COC(=O)c1cc(=NS(=O)(=O)c2ccccc2)c2c(Cl)cc(Cl)cc2[nH]1` [5,7-Dichloro-4-[benzenesulfonylimino]-1,4-dihydroquinoline-2-carboxylic acid, methyl ester], the IC50 in assay [1] came out at 6000 nM; in assay [2], 3000 nM.
